Measured values reported in patent US20230365691A1, “USE OF ANTI-PD-1 ANTIBODY IN TREATMENT OF NASOPHARYNGEAL CARCINOMA” (SHANGHAI JUNSHI BIOSCIENCES CO., LTD., priority 2020, published 2023).
Where two headings read alike, the source gives them in different places.

How the values were obtained:
[1] = system: recurrent or metastatic nasopharyngeal carcinoma patient; conditions: human, in vivo
Source text: Inclusion criteria: eligible subjects must (1) be 18 years old or older, (2) have recurrent or metastatic nasopharyngeal carcinoma, (3) be refractory to standard systemic therapy or have progressive disease after 6 months of radiotherapy and chemotherapy, (4) have an ECOG score of 0 or 1, (5) have the normal organ function within 10 days […] treatment, (6) have no history of autoimmune diseases or other malignant cancers, and (7) have not received any anti-PD-1/or anti-PD-L1 immunotherapy before.
Subjects must have an evaluable lesion according to RECIST v 1.1, have not received anti-tumour monoclonal antibody drug treatment within 4 weeks before treatment, have not received any anti-tumour drug treatment within 2 weeks before treatment, and have not received systemic steroid drug treatment within 7 days before treatment.
From Dec. 22, 2016 to Feb. 19, 2019, a total of 279 patients with recurrent or metastatic NPC were screened from 17 centres in Chinese mainland, and 190 patients were enrolled in this study. […] Of the two histological subtypes, 182 patients (95.8%) had non-keratinizing NPC and 8 patients (4.2%) had keratinizing NPC. There were 116 patients (61.1%) who had received at least two kinds of systemic therapy.
Test drug: anti-PD-1 antibody toripalimab (WO 2014206107). […]

[2] = system: recurrent or metastatic nasopharyngeal carcinoma patient; experiment: Single-arm phase II clinical trial of toripalimab: anti-tumour activity by RECIST v1.1 / irRECIST; type: in vivo, human
Procedure: Test drug: anti-PD-1 antibody toripalimab (WO 2014206107).
The subjects were evaluated every 8 weeks for the first year and every 12 weeks thereafter according to RECIST v1.1 and the Immune-Related Response Evaluation Criteria in Solid Tumour (irRECIST). The subjects were evaluated every 3 months after drug discontinuance.
This was a single-arm, phase II, open-label clinical trial. This study was conducted to evaluate the safety and anti-tumour activity of an anti-PD-1 antibody in treatment of a recurrent or metastatic nasopharyngeal carcinoma patient.

[3] = Immunogenicity: anti-drug antibodies (ADAs) in the phase II trial; type: in vivo, human
Source text: Anti-drug antibodies (ADAs) were detected in 190 patients. Seven cases (3.7%) were positive for ADA, including four consecutive positive samples.

[4] = system: recurrent or metastatic nasopharyngeal carcinoma patient; type: in vivo, human
Procedure: The PD-L1 expression status in tumour biopsies was determined by SP142 IHC staining, with tumour proportion score (TPS) > 1% being determined as positive.
Tumour biopsy tissues and matched peripheral blood samples from subjects were subjected to whole exome sequencing (WES) to identify tumour-specific mutations. […] In this study, the top 10% or 20% cut-off values of TMB (2.9 Muts/Mb and 2.0 Muts/Mb, respectively) were selected for evaluation of clinical response.
The correlation between genomic changes and clinical efficacy was analysed.
Plasma was collected from patients before administration, and the number of copies of EBV DNA was analysed by qRT-PCR once every 4 weeks.

[5] = Investigator, RECIST1.1, n = 190
[6] = Investigator, irRECIST, n = 190
[7] = at least two prior treatments (n = 116)
[8] = keratinizing versus non-keratinizing NPC

With toripalimab the “patients subjected to dose interruption due to TRAEs” value [1] was 3.7%, the CR ([2]; IRC, RECIST1.1, n = 190) was 5 (2.6%) and the NE ([2]; IRC, RECIST1.1, n = 190) was 28 (14.7%). For the same substance, the PD ([2]; IRC, RECIST1.1, n = 190) was 86 (45.3%), the PR ([2]; IRC, RECIST1.1, n = 190) was 34 (17.9%) and the CR ([2]; IRC, RECIST v1.1, 190 patients) was 5 cases. For the same substance, the PR ([2]; IRC, RECIST v1.1, 190 patients) was 34 cases, the CR ([2]; IRC, irRECIST, n = 190) was 5 (2.6%) and the NE ([2]; IRC, irRECIST, n = 190) was 28 (14.7%). For the same substance, the PD ([2]; IRC, irRECIST, n = 190) was 71 (37.4%), the PR ([2]; IRC, irRECIST, n = 190) was 34 (17.9%) and the ORR ([2]; IRC, keratinizing NPC (n = 8)) was 62.5%. For the same substance, the ORR ([2]; IRC, non-keratinizing NPC (n = 182)) was 18.7%, the CR [2, 5] was 5 (2.6%) and the “DCR (%)” value [2, 5] was 88 (46.3%). For the same substance, the NE [2, 5] was 24 (12.6%), the “ORR (%)” value [2, 5] was 40 (21.1%) and the PD [2, 5] was 78 (41.1%). For the same substance, the PR [2, 5] was 35 (18.4%), the CR [2, 6] was 5 (2.6%) and the “DCR (%)” value [2, 6] was 103 (54.2%). For the same substance, the NE [2, 6] was 28 (14.7%), the “ORR (%)” value [2, 6] was 44 (23.2%) and the PD [2, 6] was 59 (31.1%). The PR [2, 6] was 39 (20.5%), the “median DOR” value ([2]; all subjects) was 12.8 months and the “median overall survival (mOS)” value ([2]; all subjects) was 17.4 months. The “median progression-free survival (mPFS)” value ([2]; all subjects) was 1.9 months, the “median time to response” value ([2]; all subjects) was 1.8 months and the “patients who had died” value ([2]; as of Feb. 19, 2020, 190 patients) was 49.5%. The mOS [2, 7] was 15.1 months, the mPFS [2, 7] was 2.0 months and the “median DOR” value [2, 7] was 21.5 months. The OS ([2]; keratinizing NPC) was “not reached”, the PFS ([2]; keratinizing NPC) was 16.6 months and the “HR for OS” value [2, 8] was 0.51. The “HR for PFS” value [2, 8] was 0.46, the “subjects who had reductions in target lesions relative to baseline” value ([2]; n = 190) was 38.4% and the “subjects with a reduction greater than or equal to 30% in target lesions from baseline” value ([2]; n = 190) was 25.3%. For the same substance, the OS ([2]; non-keratinizing NPC) was 15.1 months, the PFS ([2]; non-keratinizing NPC) was 1.9 months and the ORR ([2]; patients who had received at least two prior treatments (n = 116)) was 21.6%. The “median OS” value ([2]; subjects experiencing objective response (n = 39) or stable disease (n = 38)) was “not reached”, the “median OS” value ([2]; subjects with progressive disease (n = 113)) was 8.4 months and the “cases positive for ADA” value ([3]; 190 patients) was 3.7%. The “difference in incidence of AEs, SAEs and AEs of grade 3 or above, drug discontinuance or dose delay, and clinical efficacy” value ([3]; between ADA positive and negative patients) was “no significant difference”, the PFS ([4]; 10% of patients with the highest TMB value, similar to the 90% with the lowest TMB value) was 1.9 months and the ORR ([4]; 11 patients with genome amplification of CCND1 and/or FGF14, FGF3 or FGF4 chromosome 11q13 region) was 0%. The “median time of at least 2-fold increase in plasma EBV DNA copies prior to imaging-confirmed progressive disease” value ([4]; 14 patients who experienced progressive disease) was 3 months, the ORR ([4]; 19 patients with ETV6 mutations) was 5.3% and the ORR ([4]; PD-L1+ patients) was 27.1%. The ORR ([4]; PD-L1- patients) was 19.4%, the mOS ([4]; PD-L1 > 25%) was “not reached” and the mPFS ([4]; PD-L1 > 25%) was 7.2 months. The “HR for OS” value ([4]; PD-L1 > 25% versus ≤ 25%) was 0.57, the “HR for PFS” value ([4]; PD-L1 > 25% versus ≤ 25%) was 0.64 and the mPFS ([4]; PD-L1 ≤ 25%) was 1.9 months. The ORR ([4]; at least 2-fold decrease in plasma EBV DNA copies on day 28 (n = 60)) was 48.3%, the ORR ([4]; baseline EBV titre < 10000 IU/mL) was 26.7% and the ORR ([4]; baseline EBV titre ≥ 10000 IU/mL) was 15.4%. For the same substance, the OS ([4]; high TMB patients) was 9.2 months, the ORR ([4]; less than 2-fold decrease in plasma EBV DNA copies on day 28 (n = 88)) was 5.7% and the OS ([4]; low TMB patients) was 17.4 months. The ORR ([4]; patients with PD-L1 > 25%) was 38.1%, the ORR ([4]; patients with PD-L1 ≤ 25%) was 19.3% and the “median decrease in the number of copies of EBV DNA in plasma from baseline to the nadir” value ([4]; patients with objective response (n = 34)) was 31 fold. For the same substance, the “change in the number of copies of EBV DNA in plasma from baseline” value ([4]; patients with progressive disease (n = 80)) was “no change”, the “decrease in the number of copies of EBV DNA in plasma from baseline to the nadir” value ([4]; patients with stable disease (n = 35)) was 3 fold and the ORR ([4]; top 10% of patients by TMB (cut-off 2.9 Muts/Mb)) was 17.6%. The ORR ([4]; top 20% of patients by TMB (cut-off 2.0 Muts/Mb)) was 14.3%.
